Test results from patent publication US10189809B2, “SGC stimulators” (Ironwood Pharmaceuticals, Inc., priority 2010, dated 2019).

Key:
[1] = biological target: T1, soluble guanylate cyclase (sGC) (Homo sapiens (Human), UniProt Q02108+Q02153); experiment: sGC-HEK-cGMP assay run with SNP incubation (HEK WC assay); assay type: cell-based; conditions: for Emax at 10 µM: read-out: HEK WC Assay (% Emax at 10 uM/with 10 uM SNP); for Emax at 30 µM: read-out: HEK WC Assay (% Emax at 30 uM/with 10 uM SNP)
T1 sequence (Q02153 whole entry): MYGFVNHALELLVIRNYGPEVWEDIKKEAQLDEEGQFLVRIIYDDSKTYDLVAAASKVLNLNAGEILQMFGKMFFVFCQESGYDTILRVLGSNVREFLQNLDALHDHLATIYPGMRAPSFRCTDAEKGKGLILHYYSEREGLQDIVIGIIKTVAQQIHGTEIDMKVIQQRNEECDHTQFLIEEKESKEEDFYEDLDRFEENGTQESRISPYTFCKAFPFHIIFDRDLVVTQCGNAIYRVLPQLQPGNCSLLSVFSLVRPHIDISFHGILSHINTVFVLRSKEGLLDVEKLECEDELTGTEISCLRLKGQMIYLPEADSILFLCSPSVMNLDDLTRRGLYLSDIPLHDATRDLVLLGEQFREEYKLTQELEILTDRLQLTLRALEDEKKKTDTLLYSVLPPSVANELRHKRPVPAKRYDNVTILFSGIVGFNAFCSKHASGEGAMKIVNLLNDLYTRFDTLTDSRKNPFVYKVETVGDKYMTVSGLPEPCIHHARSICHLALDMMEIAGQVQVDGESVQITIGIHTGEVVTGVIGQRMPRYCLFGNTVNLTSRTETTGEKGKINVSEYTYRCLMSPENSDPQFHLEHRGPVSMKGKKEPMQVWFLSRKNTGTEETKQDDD
T1 sequence (Q02108 whole entry): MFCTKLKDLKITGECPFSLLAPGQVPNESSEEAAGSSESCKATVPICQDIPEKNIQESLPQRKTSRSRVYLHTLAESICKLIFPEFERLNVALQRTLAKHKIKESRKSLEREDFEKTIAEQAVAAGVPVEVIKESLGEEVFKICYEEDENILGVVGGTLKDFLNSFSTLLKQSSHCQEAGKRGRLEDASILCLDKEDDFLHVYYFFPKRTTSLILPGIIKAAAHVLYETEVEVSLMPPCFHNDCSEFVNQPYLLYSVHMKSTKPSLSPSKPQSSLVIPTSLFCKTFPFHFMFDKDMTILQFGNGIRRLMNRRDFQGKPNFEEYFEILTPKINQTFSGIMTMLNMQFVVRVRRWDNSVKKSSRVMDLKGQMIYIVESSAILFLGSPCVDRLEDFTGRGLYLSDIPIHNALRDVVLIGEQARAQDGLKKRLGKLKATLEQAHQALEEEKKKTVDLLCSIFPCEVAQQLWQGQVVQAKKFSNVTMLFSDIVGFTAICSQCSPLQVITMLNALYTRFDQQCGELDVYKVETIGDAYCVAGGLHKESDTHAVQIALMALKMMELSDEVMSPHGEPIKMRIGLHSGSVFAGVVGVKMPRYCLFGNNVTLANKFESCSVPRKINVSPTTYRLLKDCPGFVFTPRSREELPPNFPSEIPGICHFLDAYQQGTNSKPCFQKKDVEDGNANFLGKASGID
How it was run: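 HEK293 cells with endogenous sGC were pretreated with 0.5 mM IBMX for 15 min at 37 °C, then exposed to test compound plus sodium nitroprusside for 10 min at 37 °C.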

[2] = system: Thoracic aortic rings; experiment: Thoracic aortic rings assay (Example 19a; IBMX as 100% inhibition); conditions: compound at 10 μM, rat thoracic aortic rings contracted with 100 ng/mL phenylephrine; for inhibition at 10 µM: read-out: Percent Relaxation at 10 μM
Method: Thoracic aortic rings were dissected from anesthetized (isoflurane) male Sprague-Dawley rats weighing 275-299 g. Tissues were immediately transferred to ice-cold Krebs-Henseleit solution, which had been aerated with 95% O2 and 5% CO2 for 30 minutes. Following removal of connective tissue, aortic sections were cut into 4 rings (˜2 mm each) and suspended on 2 L-shaped hooks, with one hook fixed at the bottom of the tissue bath (Schuler Organ Bath, Harvard Apparatus) and the other connected to a force transducer (F30 Force Transducer, Harvard Apparatus). Baths contained Krebs Henseleit solution (10 mL) heated to 37° C. and aerated with 95% O2 and 5% CO2. Rings were brought to an initial tension of 0.3-0.5 g and gradually raised to a resting tension of 1.0 g over 60 minutes. Rings were rinsed with Krebs Henseleit solution (heated to 37° C. and aerated with 95% O2 and 5% CO2) at 15 minute intervals until a stable baseline was obtained. Rings were considered to be stable after a resting tension of 1.0 g was maintained (for approximately 10 minutes) without need for adjustment. Rings were then contracted with 100 ng/mL phenylephrine by adding 100 uL of a 10 μg/mL phenylephrine stock solution. Tissues achieving a stable contraction were then treated in a cumulative, dose dependent manner with test compounds prepared in dimethylsulfoxide (DMSO). In some cases, tissues were rinsed three times over a 5 minute period with Krebs-Heinseleit's solution (heated to 37° C. and aerated with 95% O2 and 5% CO2), allowed to stabilize at baseline, and then used for characterization of other test articles or DMSO effects. All data were collected using the HSE-ACAD software provided by Harvard Apparatus. […] EC50 values were calculated from concentration-response curves generated with GraphPad Prism Software.

[3] = biological target: T2, Human soluble guanylate cyclase enzyme (hsGC) (Homo sapiens (Human), UniProt Q02108+Q02153); experiment: Purified human sGC enzyme activity assay; assay type: biochemical; conditions: for sGC Enzyme (specific activity at 10 μM) / sGC Enzyme (fold increase at 10 μM without SNP): 10 μM compound; for sGC Enzyme (specific activity at 30 μM) / sGC Enzyme (fold increase at 30 μM without SNP): 30 μM compound
T2 sequence (Q02153 whole entry): as the sequence (Q02153 whole entry) above
T2 sequence (Q02108 whole entry): as the sequence (Q02108 whole entry) above
How it was run: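 Purified human sGC (5 ng) incubated 30 min at 37° C with compound at 10 or 30 μM final in pH 8.0 Tris with 300 μM GTP, 2 mM MgCl2, 2 mM DTT and 1 mM IBMX, then stopped with cold methanol. cGMP quantified against a standard curve. Specific activity (nmol cGMP/mg sGC/min) expressed as fold-change over DMSO control.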

[4] = biological target: T2, Human soluble guanylate cyclase enzyme (hsGC); experiment: Purified human sGC enzyme synergy assay in the presence of 1 μM sodium nitroprusside (SNP); assay type: biochemical; conditions: with 1 μM SNP; for sGC Enzyme (fold increase at 10 μM with SNP): 10 μM compound; for sGC Enzyme (fold increase at 30 μM with SNP): 30 μM compound
How it was run: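 Purified human sGC (5 ng) incubated 30 min at 37 °C with compounds at 10 or 30 μM, 1 μM sodium nitroprusside, 300 μM GTP and 1 mM IBMX in Tris pH 8.0 with MgCl2/DTT. cGMP quantified against a standard curve, and specific activity expressed as fold-change over DMSO control.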

[5] = biological target: T1, soluble guanylate cyclase (sGC); experiment: sGC-HEK-cGMP assay run in the absence of SNP (HEK WC assay); assay type: cell-based; conditions: no SNP, increase in the sGC receptor activity; for HEK WC Assay (fold increase at 10 μM): compound at 10 μM; for HEK WC Assay (fold increase at 30 μM): compound at 30 μM
How it was run: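 HEK293 cells with endogenous sGC, preincubated 15 min at 37° C with 0.5 mM IBMX, then exposed to test compound 10 min at 37° C without SNP. Cells lysed in 0.1 M HCl; cGMP quantified by LC/MS against a standard curve. EC50 from concentration-response curves.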

Compound | Emax at 10 µM [1] [%] | Emax at 30 µM [1] [%] | sGC Enzyme (specific activity at 10 μM) [3] | sGC Enzyme (fold increase at 10 μM without SNP) [3] | sGC Enzyme (specific activity at 30 μM) [3] | sGC Enzyme (fold increase at 30 μM without SNP) [3] | sGC Enzyme (fold increase at 10 μM with SNP) [4] | sGC Enzyme (fold increase at 30 μM with SNP) [4] | HEK WC Assay (fold increase at 10 μM) [5] | HEK WC Assay (fold increase at 30 μM) [5] | inhibition at 10 µM [2] [%] | Percent Relaxation at 10 μM [2] [%]
Fc1ccccc1Cn1nc(-c2ccccn2)cc1-c1nccs1 [Compound I-27] | 20 to 40 | 40 to 60 | C (C = 100 to <200) | B (B = 2 to <5 fold increase) | D (D = 200 to <500) | B (B = 2 to <5 fold increase) |  |  |  |  | 77.2 | 
Fc1ccccc1Cn1nc(-c2ccccn2)cc1-c1ccccc1F [Compound I-7] | 0 to 10 | 0 to 10 | D (D = 200 to <500) | B (B = 2 to <5 fold increase) | D (D = 200 to <500) | B (B = 2 to <5 fold increase) | B (B = 2 to <5 fold increase) | C (C = 5 to <10 fold increase) |  |  | 60.4 | 
Fc1ccccc1Cn1nc(-c2ccccn2)cc1-c1ccsc1 [Compound I-26] | 20 to 40 | 40 to 60 | D (D = 200 to <500) | B (B = 2 to <5 fold increase) | D (D = 200 to <500) | C (C = 5 to <10 fold increase) | C (C = 5 to <10 fold increase) | D (D = equal or >10 fold increase) |  |  | 85.3 | 
Fc1ccccc1Cn1nc(-c2ncccn2)cc1-c1ccccc1 [Compound I-2] | 10 to 20 | 20 to 40 | B (B = 50 to <100) | B (B = 2 to <5 fold increase) | A (A = 0 to <50) | B (B = 2 to <5 fold increase) |  |  | A (A = no increase to <1 fold increase) | B (B = 1 to <2 fold increase) | 101 | 
Fc1ccccc1Cn1nc(-c2ccccn2)cc1-c1ccccn1 [Compound I-1] | 0 to 10 | 10 to 20 | B (B = 50 to <100) | B (B = 2 to <5 fold increase) | C (C = 100 to <200) | C (C = 5 to <10 fold increase) |  |  | A (A = no increase to <1 fold increase) | C (C = 2 to <5 fold increase) | 53.7 | 
Nc1nc(-c2nn(Cc3ccccc3F)c3ncccc23)ncc1C1CC1 [Reference Compound, BAY 41-2272, reference compound] |  |  |  |  |  |  |  |  |  |  |  | 100
Nc1ccnc(-c2cc(-c3ccccn3)n(Cc3ccccc3F)n2)n1 [Compound I-31] | 0 to 10 | 10 to 20 | C (C = 100 to <200) | A (A = no increase to <2 fold increase) | C (C = 100 to <200) | B (B = 2 to <5 fold increase) | B (B = 2 to <5 fold increase) | C (C = 5 to <10 fold increase) |  |  | 93.2 | 
Fc1ccccc1Cn1nc(-c2ccccn2)cc1C1CCC1 [Compound I-42] | 0 to 10 | 10 to 20 | D (D = 200 to <500) | B (B = 2 to <5 fold increase) | E (E = 500 to <1000) | C (C = 5 to <10 fold increase) | B (B = 2 to <5 fold increase) | C (C = 5 to <10 fold increase) |  |  | 72.1 | 

Now from value to compound, other results behind:

Emax at 10 µM [1] [%] | Emax at 30 µM [1] [%] | sGC Enzyme (specific activity at 10 μM) [3] | sGC Enzyme (fold increase at 10 μM without SNP) [3] | sGC Enzyme (specific activity at 30 μM) [3] | sGC Enzyme (fold increase at 30 μM without SNP) [3] | sGC Enzyme (fold increase at 10 μM with SNP) [4] | sGC Enzyme (fold increase at 30 μM with SNP) [4] | HEK WC Assay (fold increase at 10 μM) [5] | HEK WC Assay (fold increase at 30 μM) [5] | Compound | inhibition at 10 µM [2] [%] | Percent Relaxation at 10 μM [2] [%]
20 to 40 | 20 to 40 | B (B = 50 to <100) | B (B = 2 to <5 fold increase) | C (C = 100 to <200) | C (C = 5 to <10 fold increase) | C (C = 5 to <10 fold increase) | D (D = equal or >10 fold increase) |  |  | Fc1ccccc1Cn1nc(-c2ncccn2)cc1-c1cccs1 [Compound I-66] | 103 | 
20 to 40 | 20 to 40 | C (C = 100 to <200) | B (B = 2 to <5 fold increase) | D (D = 200 to <500) | C (C = 5 to <10 fold increase) | D (D = equal or >10 fold increase) | D (D = equal or >10 fold increase) |  |  | Fc1ccccc1Cn1nc(-c2ccccn2)cc1-c1ccco1 [Compound I-61] | 103 | 
20 to 40 | 40 to 60 | D (D = 200 to <500) | C (C = 5 to <10 fold increase) | E (E = 500 to <1000) | D (D = equal or >10 fold increase) |  |  |  |  | Nc1ccnc(-c2cc(-c3ccsc3)n(Cc3ccccc3F)n2)n1 [Compound I-49] | 106 | 
20 to 40 | 20 to 40 | C (C = 100 to <200) | A (A = no increase to <2 fold increase) | C (C = 100 to <200) | B (B = 2 to <5 fold increase) | C (C = 5 to <10 fold increase) | D (D = equal or >10 fold increase) |  |  | Fc1ccccc1Cn1nc(-c2ccccn2)cc1-c1nnco1 [Compound I-45] | 94.9 | 
